≈ marks a conversion by molar mass, not a printed value. Like-named read-outs stand apart in the source and are kept apart here.
Assays:
[1] = system: Staphylococcus aureus ATCC 6538P FDA 209P (Sa); experiment: Antimicrobial serial microdilution, Sa; assay type: cell-based; settings: for MIC: read-out: Minimum Inhibitory Concentration (MIC), Sa
[2] = system: Bacillus cereus ATCC 10702 (Bc); experiment: Antimicrobial serial microdilution, Bc; assay type: cell-based; settings: for MIC: Bacillus cereus
[3] = system: Enterococcus faecalis ATCC 29212 (Ef); experiment: Antimicrobial serial microdilution, Ef; assay type: cell-based; settings: for MIC: Enterococcus faecalis
MRSA-1 = experiment: Antimicrobial serial microdilution, MRSA-1; assay type: cell-based, Staphylococcus aureus
MRSA-2 = experiment: Antimicrobial serial microdilution, MRSA-2; assay type: cell-based, Staphylococcus aureus
PC3 = experiment: cells; assay type: cell-based; settings: Homo sapiens, read-out: IC50, PC3
MCF-7 = experiment: cells; assay type: cell-based, human; settings: Homo sapiens, MCF7, 48 h, read-out: IC50, MCF-7
T98G = experiment: cells; assay type: cell-based; settings: Homo sapiens, 48 h, read-out: IC50, T98G
A375 = experiment: cells; assay type: cell-based; settings: Homo sapiens, read-out: IC50, A375
WI38 = experiment: cells; assay type: cell-based; settings: Homo sapiens, read-out: IC50, WI38
HuTu 80 = experiment: cells; settings: Homo sapiens, HuTu80, 48 h, read-out: IC50, HuTu 80
PANC-1 = experiment: cells; settings: Homo sapiens, PANC-1, 48 h, read-out: IC50, PANC-1
M-HeLa = experiment: cells; settings: Homo sapiens, 48 h, read-out: IC50, M-HeLa
A549 = experiment: cells; settings: Homo sapiens, A549, 48 h, read-out: IC50, A549
Chang Liver = experiment: cells; settings: Homo sapiens, 48 h, read-out: IC50, Chang Liver
[4] = serial microdilution, Mueller-Hinton broth
[5] = serial microdilution, strain resistant to β-lactams and fluoroquinolones
[6] = serial microdilution, strain resistant only to β-lactams

Which results are given for `O=C(N[C@H](CO)[C@H](O)c1ccc([N+](=O)[O-])cc1)C(Cl)Cl` [Chloramphenicol, reference compound]?
MIC ([1]; Staphylococcus aureus, serial microdilution, Mueller-Hinton broth): 31.3 ± 2.2 µg/mL (≈ 96.9 µM); Minimum bactericidal and fungicidal concentrations (MBC), (MFC), Sa ([1]; serial microdilution): -; MIC ([2]; ATCC10702, serial microdilution, Mueller-Hinton broth, read-out: Minimum Inhibitory Concentration (MIC), Bc): 62.5 ± 5.4 µg/mL (≈ 193 µM); Minimum bactericidal and fungicidal concentrations (MBC), (MFC), Bc ([2]; serial microdilution): -; MIC ([3]; ATCC29212, serial microdilution, Mueller-Hinton broth, read-out: Minimum Inhibitory Concentration (MIC), Ef): 62.5 ± 5.2 µg/mL (≈ 193 µM); Minimum bactericidal and fungicidal concentrations (MBC), (MFC), Ef ([3]; serial microdilution): -; Minimum bactericidal and fungicidal concentrations (MBC), (MFC), MRSA-1 (MRSA-1; serial microdilution): -; Minimum bactericidal and fungicidal concentrations (MBC), (MFC), MRSA-2 (MRSA-2; serial microdilution): -

What does the source list for `CC(=O)N1CCN(c2ccc(OCC3COC(Cn4ccnc4)(c4ccc(Cl)cc4Cl)O3)cc2)CC1` (stereo not drawn) [Ketoconazole, reference compound]?
Minimum bactericidal and fungicidal concentrations (MBC), (MFC), Sa ([1]; serial microdilution): -; Minimum Inhibitory Concentration (MIC), Sa [1, 4]: -; Minimum bactericidal and fungicidal concentrations (MBC), (MFC), Bc ([2]; serial microdilution): -; Minimum Inhibitory Concentration (MIC), Bc [2, 4]: -; Minimum bactericidal and fungicidal concentrations (MBC), (MFC), Ef ([3]; serial microdilution): -; Minimum Inhibitory Concentration (MIC), Ef [3, 4]: -; Minimum bactericidal and fungicidal concentrations (MBC), (MFC), MRSA-1 (MRSA-1; serial microdilution): -; Minimum Inhibitory Concentration (MIC), MRSA-1 (MRSA-1; [5]): -; Minimum bactericidal and fungicidal concentrations (MBC), (MFC), MRSA-2 (MRSA-2; serial microdilution): -; Minimum Inhibitory Concentration (MIC), MRSA-2 (MRSA-2; [6]): -

For `COP(=O)(OC)C(c1cc(C(C)(C)C)c(O)c(C(C)(C)C)c1)c1ccc(Nc2c([N+](=O)[O-])cc([N+](=O)[O-])c3no[n+]([O-])c23)nc1Nc1c([N+](=O)[O-])cc([N+](=O)[O-])c2no[n+]([O-])c12` (stereo not drawn) [5a, 7,7’-((3-((3,5-di-tert-butyl-4-hydroxyphenyl)(dimethoxyphosphoryl)methyl)pyridine-2,6-diyl)bis(azanediyl))bis(4,6-dinitrobenzo[c][1,2,5]oxadiazole 1-oxide)], which IC50 (PC3; PC-3, 48 h) is on record?
The IC50 was 7.7 ± 0.6 µM.

And the IC50 (MCF-7)?
Its IC50 is 12.1 ± 1.1 µM.

And the IC50 (T98G)?
Its IC50 is 26.8 ± 2.2 µM.

What about the IC50 (A375; A-375, 48 h) of the same compound?
Its IC50 is 21.6 ± 1.8 µM.

And the IC50 (WI38; WI-38, 48 h)?
The IC50 was 11.4 ± 0.9 µM.

And the MIC ([1]; Staphylococcus aureus)?
The MIC was 125 ± 11 µg/mL (≈ 141 µM).

What about the MBC ([1]; Staphylococcus aureus, read-out: Minimum bactericidal and fungicidal concentrations (MBC), (MFC), Sa) of the same compound?
Its MBC is 250 ± 19 µg/mL (≈ 283 µM).

And the “Minimum bactericidal and fungicidal concentrations (MBC), (MFC), Bc” value [2]?
Its value is “-”.

What about the MIC ([2]; ATCC10702, read-out: Minimum Inhibitory Concentration (MIC), Bc) of the same compound?
Its MIC is 62.5 ± 5.3 µg/mL (≈ 70.7 µM).

And the “Minimum bactericidal and fungicidal concentrations (MBC), (MFC), Ef” value [3]?
The value was “-”.

What about the MIC ([3]; ATCC29212, read-out: Minimum Inhibitory Concentration (MIC), Ef) of the same compound?
Its MIC is 125 ± 10 µg/mL (≈ 141 µM).

What about the MIC (MRSA-1; Staphylococcus aureus, MRSA, read-out: Minimum Inhibitory Concentration (MIC), MRSA-1) of the same compound?
The MIC was 250 ± 20 µg/mL (≈ 283 µM).

What about the MBC (MRSA-1; Staphylococcus aureus, MRSA, read-out: Minimum bactericidal and fungicidal concentrations (MBC), (MFC), MRSA-1) of the same compound?
Its MBC is 250 ± 21 µg/mL (≈ 283 µM).

What about the “Minimum bactericidal and fungicidal concentrations (MBC), (MFC), MRSA-2” value (MRSA-2) of the same compound?
Its value is “-”.

What about the MIC (MRSA-2; Staphylococcus aureus, MRSA, read-out: Minimum Inhibitory Concentration (MIC), MRSA-2) of the same compound?
The MIC was 250 ± 20 µg/mL (≈ 283 µM).

What about the IC50 (HuTu 80) of the same compound?
Its IC50 is 11 ± 0.9 µM.

And the IC50 (PANC-1)?
The IC50 was 13.5 ± 1.1 µM.

What about the IC50 (M-HeLa) of the same compound?
Its IC50 is 7.7 ± 0.6 µM.

What about the IC50 (A549) of the same compound?
Its IC50 is 48.4 ± 3.5 µM.

And the IC50 (Chang Liver)?
The IC50 was 15.1 ± 1.7 µM.

How did the IC50 (PC3; PC-3, cancer cell line, 48 h incubation, MTT) turn out when `CNC(=O)c1cc(Oc2ccc(NC(=O)Nc3ccc(Cl)c(C(F)(F)F)c3)cc2)ccn1` [SF, sorafenib, reference compound] was run?
Its IC50 is 11.3 ± 0.9 µM.

What about the IC50 (T98G) of the same compound?
Its IC50 is 8.6 ± 0.7 µM.

And the IC50 (A375; A-375, cancer cell line, 48 h incubation, MTT)?
Its IC50 is 6.8 ± 0.5 µM.

And the IC50 (WI38; WI-38, normal cell line, 48 h incubation, MTT)?
The IC50 was 6.6 ± 0.5 µM.

And the IC50 (PANC-1)?
Its IC50 is 12 ± 1.1 µM.

What about the IC50 (A549) of the same compound?
Its IC50 is 25.2 ± 2.2 µM.

How did the IC50 (PC3; PC-3, 48 h) turn out when `CC(C)(C)c1cc(C(c2ccc(Nc3c([N+](=O)[O-])cc([N+](=O)[O-])c4no[n+]([O-])c34)nc2N)P(=O)(Oc2ccccc2)Oc2ccccc2)cc(C(C)(C)C)c1O` (stereo not drawn) [4d, 7-((6-amino-5-((3,5-di-tert-butyl-4-hydroxyphenyl)(diphenoxyphosphoryl)methyl)pyridin-2-yl)amino)-4,6-dinitrobenzo[c][1,2,5]oxadiazole 1-oxide] was run?
The IC50 was 11.3 ± 0.9 µM.

What about the IC50 (MCF-7) of the same compound?
The IC50 was 9 ± 0.7 µM.

What about the IC50 (T98G) of the same compound?
The IC50 was 7.9 ± 0.7 µM.

What about the IC50 (A375; A-375, 48 h) of the same compound?
The IC50 was 17 ± 1.4 µM.

And the IC50 (WI38; WI-38, 48 h)?
Its IC50 is 11.3 ± 1.1 µM.

What about the “Minimum Inhibitory Concentration (MIC), Sa” value [1] of the same compound?
Its value is “-”.

What about the “Minimum Inhibitory Concentration (MIC), Bc” value [2] of the same compound?
Its value is “-”.

What about the “Minimum Inhibitory Concentration (MIC), Ef” value [3] of the same compound?
Its value is “-”.

What about the “Minimum Inhibitory Concentration (MIC), MRSA-1” value (MRSA-1) of the same compound?
Its value is “-”.

What about the “Minimum Inhibitory Concentration (MIC), MRSA-2” value (MRSA-2) of the same compound?
The value was “-”.

What about the IC50 (HuTu 80) of the same compound?
The IC50 was 13.1 ± 1.1 µM.

What about the IC50 (PANC-1) of the same compound?
Its IC50 is 11.9 ± 0.9 µM.

What about the IC50 (M-HeLa) of the same compound?
Its IC50 is 6.3 ± 0.5 µM.

What about the IC50 (A549) of the same compound?
The IC50 was 9 ± 0.7 µM.

What about the IC50 (Chang Liver) of the same compound?
Its IC50 is 21 ± 2.4 µM.

Which IC50 (MCF-7) does the source give for `COP(=O)(OC)C(c1cc(C(C)(C)C)c(O)c(C(C)(C)C)c1)c1ccc(N)nc1N` (stereo not drawn) [2a] here?
Its IC50 is 31 ± 2.6 µM.

And the “Minimum Inhibitory Concentration (MIC), Sa” value [1]?
Its value is “-”.

What about the “Minimum Inhibitory Concentration (MIC), Bc” value [2] of the same compound?
The value was “-”.

And the “Minimum Inhibitory Concentration (MIC), Ef” value [3]?
Its value is “-”.

What about the “Minimum Inhibitory Concentration (MIC), MRSA-1” value (MRSA-1; [5]) of the same compound?
Its value is “-”.

And the “Minimum Inhibitory Concentration (MIC), MRSA-2” value (MRSA-2; [6])?
The value was “-”.

And the IC50 (HuTu 80)?
Its IC50 is over 100 µM.

What about the IC50 (M-HeLa) of the same compound?
Its IC50 is 16.1 ± 1.3 µM.

What about the IC50 (Chang Liver) of the same compound?
Its IC50 is over 100 µM.

What does the source list for `CCOP(=O)(OCC)C(c1cc(C(C)(C)C)c(O)c(C(C)(C)C)c1)c1ccc(Nc2c([N+](=O)[O-])cc([N+](=O)[O-])c3no[n+]([O-])c23)nc1N` (stereo not drawn) [4b, 7-((6-amino-5-((3,5-di-tert-butyl-4-hydroxyphenyl)(diethoxyphosphoryl)methyl)pyridin-2-yl)amino)-4,6-dinitrobenzo[c][1,2,5]oxadiazole 1-oxide]?
IC50 (PC3; PC-3, 48 h): 11 ± 0.8 µM; IC50 (MCF-7): 3.1 ± 0.2 µM; IC50 (T98G): 8.3 ± 0.7 µM; IC50 (A375; A-375, 48 h): 11.4 ± 0.9 µM; IC50 (WI38; WI-38, 48 h): 5.3 ± 0.4 µM; IC50 (HuTu 80): 5.4 ± 0.3 µM; IC50 (PANC-1): 5.3 ± 0.4 µM; IC50 (M-HeLa): 2.9 ± 0.2 µM; IC50 (A549): 9.3 ± 0.8 µM; IC50 (Chang Liver): 7 ± 1.5 µM

Source: PMC10145285, “Diverse Biological Activity of Benzofuroxan/Sterically Hindered Phenols Hybrids” (Pharmaceuticals, 2023)
